Source: patent EP4285905A1, “CABERGOLINE OR A PHARMACEUTICALLY ACCEPTABLE SALT OR SOLVATE THEREOF, FOR USE IN PREVENTION OR DELAY OF POST-PREGNANCY BREAST CANCER IN A FEMALE MAMMAL” (Consejo Superior de Investigaciones Cientificas, priority 2022, dated 2023)

How the values were obtained:
Brca1/P53-deficient mice = test: Ki-67 immunohistochemistry as a proliferation marker in the mammary epithelium; type: in vivo
Description: Subsequently, the same groups of animals indicated were generated and samples were collected from the mammary glands at 1, 3, 7, 30 and 60 days post-gestation (in non-lactating multiparous) or post-weaning (in lactating multiparous, with and without treatment with cabergoline) (N = 5 mice per group at each time studied).
Ki67 staining was performed at the Comparative Molecular Pathology Service of the Cancer Molecular and Cellular Biology Institute in Salamanca. Sections of the sample were made at 3 µm thickness. Sections were fished onto slides specially treated for this technique (Leica BOND Plus Slides, #S21.2113.A, Leica). The staining process was carried out using the Roche Discovery ULTRA research instrument. The protocol performed by the apparatus is as follows: deparaffinization of the sample, heating the slide to 69 °C; cell conditioning that consisted in the unmasking of the epitope by incubating the sample in a buffer formed by TRIS EDTA pH8 at a temperature of 100 °C for 32 minutes. Next, the primary antibody (Rabbit Anti-Human Ki-67 Monoclonal Antibody (Clone SP6), #MAD-020310Q, Master Diagnostica) was applied manually at a 1:50 dilution and incubated at 37 °C for 60 minutes. After incubation of the primary antibody, two washes with HRP buffer were performed. […]
To quantify cells positive for Ki-67 or caspase 3, the Leica Application Suite (LAS) V3.7 program was used. […]

recombinant (RFP+) cells = test: Flow cytometry of RFP+ recombinant mammary epithelial subpopulations; type: in vivo, mice; conditions: 60 days after weaning
Excerpt: The mouse model used for the cytometry studies was obtained by crossing the conditional model K14Cre; Brca1^F/F; P53^F/F with a model that expresses red fluorescent protein (RFP) under the promoter of the ROSA26 locus. This promoter has a stop codon flanked by LoxP sites that recognize Cre-recombinase. In this way, cells that lose Brca1 (gene) and P53 (gene) due to the action of Cre-recombinase also express RFP and emit fluorescence. The mouse was obtained from the European repository (European mutant mouse archive - EMMA) and was generated by the group of Hans Jörg Fehling from the Institute of Immunology of the Clinical University of Ulm, Germany. For these studies, between 6 and 11 mice from the different study groups were used.
Once the mouse mammary glands were removed, they were incubated in a 50 mL tube containing 9 mL of medium (Gibco DMEM/F-12, #11554546, Fisher Scientific), 500 µL of collagenase and 500 µL of hyaluronidase, at a temperature of 37 °C for 16 hours. After incubation, the aggregated tissue debris was disrupted by pipetting for approximately 30 seconds and the sample was centrifuged for 5 minutes at 350 g at room temperature. Centrifugation was performed, in all examples, using the Eppendorf 5804R refrigerated centrifuge including an A-44 rotor with a radius of 15 cm (width (metric) exterior 634 mm; depth (metric) 550 mm, height (metric) exterior 342 mm). The supernatant was discarded and the pellet formed was resuspended in 2 mL of ACK buffer (Gibco ACK Lysing Buffer, #A10492-01, Fisher Scientific) to lyse the erythrocytes present in the sample. The disaggregated sample was incubated in ACK buffer for 5 minutes at room temperature and subsequently centrifuged at 350 g for 5 minutes. After centrifugation, the supernatant was discarded and 1 mL of trypsin was added at 37 °C. The pellet was resuspended by pipetting for 2 minutes. Next, 10 mL of saline (Gibco HBSS, #14025-092, Fisher Scientific) supplemented with 10 mM HEPES buffer and fetal bovine serum was added and centrifuged for 5 minutes at 350 g at room temperature. Then, the supernatant was discarded and 1 mL of the buffered saline solution (hereinafter HF) and 100 µL of warm DNase were added, carefully pipetted for 1 minute and 5 mL of cold HF was added, to stop action of the DNase. The mixture was filtered through a 40 µm filter and washed with 5 mL of cold HF. It was centrifuged for 5 minutes at 350 g, at a temperature of 4 °C and the supernatant was removed after centrifugation. Subsequently, the mixture was resuspended in 5 mL of cold HF and the mixture was distributed in cytometry tubes with a 35 µm filter. 4/5 of the sample was allocated for immunolabeling and the remaining 1/5 was allocated as an unlabelled control. It was centrifuged for 5 minutes at 1200 rpm (= 20 s^-1) at a temperature of 4 °C and the supernatant was decanted after centrifugation. Subsequently, 52 µL of blocking solution, consisting of 50 µL of HF and 2 µL of anti-CD16/CD32 antibody, were added, gently vortexed and incubated for 10 minutes at 4 °C. Next, 50 µL of immuno-labelling solution made up of the following antibodies: CD45 FITC, CD140 FITC, CD31 FITC, Ter119 FITC, CD49fAPC, CD29 APC-Cy7, CD61 BV421, Sca1 PerCP-Cy5, EpCAM PE- Cy7, e506, was added to the tube intended for staining and 50 µL of HF was added to the control tube. After incubating for 30 minutes and performing a wash, the samples were acquired with the LSR Fortessa X-20 Cell Analyzer cytometer (BD Biosciences). […]

[1] = KO-RFP+ group, vs nulliparous and lactating multiparous mice
[2] = treated vs untreated multiparous mice

C=CCN1C[C@H](C(=O)N(CCCN(C)C)C(=O)NCC)C[C@@H]2c3cccc4[nH]cc(c34)C[C@H]21 [cabergoline, 1-[(6-allylergolin-8ß-yl)-carbonyl]-1-[3-(dimethylamino)propyl]-3-ethylurea]
epithelial proliferation (% of Ki67+ cells) (Brca1/P53-deficient mice; 30 days post-weaning): profound hypoproliferative state
epithelial proliferation (% of Ki67+ cells) (Brca1/P53-deficient mice; 60 days of post-lactational involution): hypoproliferative state
ductal precursor cells (CD61+) with respect to total recombinant ductal cells (recombinant (RFP+) cells; [1]): relative increase in precursors
mature ductal cells (CD61-) with respect to total recombinant ductal cells (recombinant (RFP+) cells; [1]): relative decrease in mature ductal cells
ductal cell subpopulations with respect to total recombinant epithelial cells (recombinant (RFP+) cells; [2]): no statistically significant differences
proportion of luminal and basal cells within recombinant cells (RFP+) (recombinant (RFP+) cells; [2]): No significant differences
proportion of luminal ductal cells (Sca1+) within recombinant luminal cells (recombinant (RFP+) cells; [2]): no significant differences
